Assay results: the NIST ThermoML archive (doi:10.1016/j.fluid.2015.03.048)

Experiment: xn = mol fraction of the nth substance listed
Conditions: 303.15 K, 100 kPa, Liquid; for viscosity: Capillary tube (Ostwald / Ubbelohde) method; for excess molar volume: Direct dilatometry; for speed of sound: Frequency=3 MHz, Sing-around technique in a fixed-path interferometer; for mass density: Pycnometric method

Cc1ccccc1[N+](=O)[O-] [2-nitrotoluene] + CC(=O)N(C)C
Conditions | excess molar volume [m3/mol] | mass density [kg/m3] | speed of sound [m/s] | viscosity [mPa·s]
x2 = 0.0824 | – | 1135.81 | 2046 | –
x2 = 0.1025 | 1.4e-08 | – | – | 1.905
x2 = 0.124 | – | 1126.98 | 2006 | –
x2 = 0.1501 | – | 1121.45 | 1978 | –
x2 = 0.1527 | 2e-08 | – | – | 1.877
x2 = 0.1784 | – | 1115.46 | 1956 | –
x2 = 0.1835 | 2.5e-08 | – | – | 1.857
x2 = 0.2165 | 2.8e-08 | – | – | 1.835
x2 = 0.2318 | – | 1104.13 | 1897 | –
x2 = 0.2579 | – | 1098.58 | 1874 | –
x2 = 0.2775 | 3.5e-08 | – | – | 1.788
x2 = 0.3067 | 4e-08 | – | – | 1.763
x2 = 0.3103 | – | 1087.46 | 1817 | –
x2 = 0.3637 | – | 1076.12 | 1773 | –
x2 = 0.3641 | 4.7e-08 | – | – | 1.715
x2 = 0.4133 | – | 1065.58 | 1734 | –
x2 = 0.4211 | 5.3e-08 | – | – | 1.663
x2 = 0.466 | – | 1054.4 | 1696 | –
x2 = 0.4727 | 5.8e-08 | – | – | 1.613
x2 = 0.5262 | 6e-08 | – | – | 1.559
x2 = 0.5465 | – | 1037.36 | 1650 | –
x2 = 0.6053 | 5.8e-08 | – | – | 1.474
x2 = 0.6694 | – | 1011.4 | 1592 | –
x2 = 0.7204 | 4.5e-08 | – | – | 1.336
x2 = 0.7773 | – | 988.58 | 1547 | –
x2 = 0.8162 | 3.2e-08 | – | – | 1.203
x2 = 0.8701 | – | 968.9 | 1506 | –
x2 = 0.895 | 2e-08 | – | – | 1.074
x2 = 0.9584 | – | 950.18 | 1463 | –
x2 = 0.967 | 7e-09 | – | – | 0.937
